From US20090239757A1, “Control Sequences Responding to AMP and Uses Thereof” (priority 2004, published 2009)
Residues, ends and D or L forms follow the SMILES beside them.

Test system: E. coli
Assay: growth and killing of E. coli on induced expression of novispirin (Suicide Expression System)
Format: cell-based, Escherichia coli
From the text: In the examples below the method of the invention has been illustrated using novispirin as the antimicrobial peptide and E. coli as the host cell. To assess the sustained physiological response of E. coli to novispirin, an arabinose induction system was used to make E. coli produce novispirin at a sub-lethal rate. […] These categories comprise particularly genes related to membrane dysfunction, heat shock, phage shock and antimicrobial peptide defense.
A plasmid was constructed to investigate the transcriptional response of E. coli upon expressing Novispirin G10 in a Suicide Expression System (SES) setup. The SES takes advantage of conditionally expressing antimicrobial peptides in a sensitive host. The degree of inhibition in the host reflects the potency of the antimicrobial peptide (AMP) (WO200073433). In the current setup, the AMP is exported to the periplasmic space where it interacts with the inner and/or outer membrane of E. coli.
In order to obtain a transcriptional profile of E. coli expressing Novispirin G10, 2×10 mL sterile LB media (10 g/L Bactotryptone, 5 g/L Yeast extract, and 10 g/L NaCl) containing 100 mg/L ampicillin was inoculated with E. coli TOP10 harbouring pDRS5-novispirin and pBAD gIII A, respectively. These cultures were grown overnight at 37° C. at 180 rpm. […]

## CC[C@H](C)[C@H](NC(=O)CNC(=O)[C@H](CCCCN)NC(=O)[C@H](CCCNC(=N)N)NC(=O)[C@@H](NC(=O)[C@@H](NC(=O)[C@H](CCCNC(=N)N)NC(=O)[C@H](CCCNC(=N)N)NC(=O)[C@H](CC(C)C)NC(=O)[C@H](CC(N)=O)NC(=O)[C@@H](N)CCCCN)[C@@H](C)CC)[C@@H](C)CC)C(=O)N[C@@H](Cc1c[nH]cn1)C(=O)N[C@H](C(=O)N[C@H](C(=O)N[C@@H](CCCCN)C(=O)N[C@@H](CCCCN)C(=O)N[C@@H](Cc1ccc(O)cc1)C(=O)NCC(=O)O)[C@@H](C)CC)[C@@H](C)CC [Novispirin G10] (H-KNLRRIIRKGIHIIKKYG-OH; N-terminus assumed)
Arabinose induction, sub-lethal rate, growth was not completely inhibited
  growth rate on induction of novispirin expression: reduced the growth rate significantly
Expressed and exported to the periplasmic space, as opposed to adding purified peptide to a cell culture
  inhibition and killing of the host when the AMP is expressed: prolong the inhibition and delay killing
